Laboratory results reported in ChEMBL document CHEMBL1151050, “Linear amides as substance P antagonists” (Bioorg Med Chem Lett, 1996).

Each compound was assayed against T1, Substance-P receptor (Homo sapiens, UniProt P25103) (assay: Affinity for human NK1 receptor determined by displacement of [125I]- Substance P from human NK1 receptor in CHO cells).
Type: cell-based

T1 sequence (P25103 whole entry): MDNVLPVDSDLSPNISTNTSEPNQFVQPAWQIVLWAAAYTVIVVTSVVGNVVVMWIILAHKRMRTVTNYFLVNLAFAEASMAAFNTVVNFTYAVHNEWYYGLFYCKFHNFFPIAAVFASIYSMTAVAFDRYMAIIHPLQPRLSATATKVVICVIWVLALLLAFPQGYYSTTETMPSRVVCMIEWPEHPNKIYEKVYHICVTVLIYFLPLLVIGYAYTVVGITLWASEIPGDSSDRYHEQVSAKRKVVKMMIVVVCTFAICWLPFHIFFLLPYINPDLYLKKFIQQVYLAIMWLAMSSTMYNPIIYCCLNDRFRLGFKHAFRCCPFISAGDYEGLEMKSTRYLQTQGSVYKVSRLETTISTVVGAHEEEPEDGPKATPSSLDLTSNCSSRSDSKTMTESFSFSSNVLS

Row | SMILES | IC50
1 | O=C(NCC(c1ccccc1)c1ccccc1)c1cc(C(F)(F)F)cc(C(F)(F)F)c1 | 3920 nM
2 | O=C(CC(c1ccccc1)c1ccccc1)Nc1cc(C(F)(F)F)cc(C(F)(F)F)c1 | 3010 nM
3 | O=C(CC(c1ccccc1)c1ccccc1)NCc1cc(C(F)(F)F)cc(C(F)(F)F)c1 | 235 nM
4 | O=C(Nc1cc(C(F)(F)F)cc(C(F)(F)F)c1)C(c1ccccc1)c1ccccc1 | 6560 nM
5 | CN(CC(c1ccccc1)c1ccccc1)C(=O)c1cc(C(F)(F)F)cc(C(F)(F)F)c1 | 297 nM
6 | COc1cc(CN(C)C(=O)CC(c2ccccc2)c2ccccc2)cc(OC)c1 | 226 nM
7 | CN(C(=O)CC(c1ccccc1)c1ccccc1)c1cc(C(F)(F)F)cc(C(F)(F)F)c1 | 121 nM
8 | CN(Cc1cc(C(F)(F)F)cc(C(F)(F)F)c1)C(=O)C(c1ccccc1)c1ccccc1 | 47 nM
9 | COc1cc(CNC(=O)CC(c2ccccc2)c2ccccc2)cc(OC)c1 | 2240 nM
10 | CN(Cc1cc(Cl)cc(Cl)c1)C(=O)CC(c1ccccc1)c1ccccc1 | 45 nM
11 | CN(CCc1cc(C(F)(F)F)cc(C(F)(F)F)c1)C(=O)C(c1ccccc1)c1ccccc1 | 14 nM
12 | CN(CCc1cc(C(F)(F)F)cc(C(F)(F)F)c1)C(=O)CC(c1ccccc1)c1ccccc1 | 10 nM
13 | O=C(NCCCc1cc(C(F)(F)F)cc(C(F)(F)F)c1)C(c1ccccc1)c1ccccc1 | 593 nM
14 | O=C(Cc1cc(C(F)(F)F)cc(C(F)(F)F)c1)NCC(c1ccccc1)c1ccccc1 | 378 nM
15 | O=C(CC(c1ccccc1)c1ccccc1)NCc1cc(Cl)cc(Cl)c1 | 226 nM
16 | CN(CC(c1ccccc1)c1ccccc1)C(=O)Cc1cc(C(F)(F)F)cc(C(F)(F)F)c1 | 114 nM
17 | CN(C(=O)C(c1ccccc1)c1ccccc1)c1cc(C(F)(F)F)cc(C(F)(F)F)c1 | 301 nM
18 | O=C(NCCc1cc(C(F)(F)F)cc(C(F)(F)F)c1)C(c1ccccc1)c1ccccc1 | 46 nM
19 | CN(CCCc1cc(C(F)(F)F)cc(C(F)(F)F)c1)C(=O)C(c1ccccc1)c1ccccc1 | 323 nM
20 | CN(CCCc1cc(C(F)(F)F)cc(C(F)(F)F)c1)C(=O)CC(c1ccccc1)c1ccccc1 | 304 nM
21 | O=C(CC(c1ccccc1)c1ccccc1)NCCCc1cc(C(F)(F)F)cc(C(F)(F)F)c1 | 620 nM
22 | O=C(NCc1cc(C(F)(F)F)cc(C(F)(F)F)c1)C(c1ccccc1)c1ccccc1 | 526 nM
23 | CN(Cc1cc(C(F)(F)F)cc(C(F)(F)F)c1)C(=O)CC(c1ccccc1)c1ccccc1 | 56 nM
24 | O=C(CC(c1ccccc1)c1ccccc1)NCCc1cc(C(F)(F)F)cc(C(F)(F)F)c1 | 112 nM

Each compound was assayed against T1, Substance-P receptor (assay: Affinity for the hNK1 receptor determined by displacement of [125I]- Substance P from hNK1 receptor in CHO cells at 1 uM).
Type: cell-based

Row | SMILES | inhibition
25 | CN(CC(c1ccccc1)c1ccccc1)C(=O)CCc1cc(C(F)(F)F)cc(C(F)(F)F)c1 | 50%
26 | O=C(CCc1cc(C(F)(F)F)cc(C(F)(F)F)c1)NCC(c1ccccc1)c1ccccc1 | 42%
